What was measured:
OTI-1 CD8+ T-cells [1] = assay: CD62L surface expression by FACS on in vitro stimulated CD8+ T cells; type: cell-based, mouse; conditions: FACS median fluorescence, day 7; negative control = effector T cells expanded with IL-2/7; concentrations as in the 1st table/the 2nd table
Method: (§1) Unless specified otherwise, cell media were supplemented with agents or combinations of agents at the following concentrations:
An OTI-1 mouse was sacrifice and dissected to extract the spleen. Under sterile conditions, the spleen was disrupted over a […] filter. PBS was then added to the disrupted spleen to a volume of 30 mL, and the mixture was centrifuged (1500 rpm, 5 min at room temperature).
The PBS supernatant was discarded and the cells resuspended in 2 mL of 1× red blood cell lysis buffer for 3 min. 15 mL of PBS was then added to wash the cells, and the mixture was centrifuged (1500 rpm, 5 min at room temperature).
The PBS supernatant was discarded and the cells resuspended in fresh RPMI completed media (+10% FBS, Sodium Pyruvate) before counting.
(§2) 750 μL of agent/agent combination supplementation solutions (described above) were added to corresponding wells of a flat bottom 24-well plate.
(§3) The total splenic cells were then resuspended in RPMI completed media (+10% FBS, Sodium Pyruvate), including IL-2 (final concentration 100 U/mL) and SIINFEKL peptide (final concentration 250 nM) at 1.6×10^6 cells/mL.
750 μL of cell solution (2×) were added to each well. Thus, the cell count was 1200000 cells per well at 0.8×10^6 cells/mL.
The cells were then incubated at 37° C. for 3 days.
The specific activation of OTI-1 T-cells is due to the SIINFEKL peptide. Therefore after 3 days, mostly (if not only) CD8 T-cells will have proliferated and show an activation profile.
(§4) The cells from each condition (after day 3) were counted and resuspended in RPMI completed media (+10% FBS, Sodium Pyruvate) at 1.2×10^6 cells/mL.
(§5) The cells were then distributed in 96-well or 12-well plates at 5×10^4 cells/well (96-well plate) and 6×10^6 cells/well (12-well plate).
(§6) Agent/agent combination supplementation solutions (described above) or complete media were added to corresponding wells in addition to either: (a) IL-2 (at a final concentration of 100 U/mL) and IL-7 (at a final concentration of 10 U/mL) (to keep the effector phenotype); or (b) IL-15 (at a final concentration of 10 U/mL) (to induce differentiation into memory precursor effector cells (MPECs) as a positive control.
Extra media was added at day 5 to the wells with fresh agents and cytokines.
(§7) The cells were then incubated at 37° C. for 4 days before proceeding with FACS staining or Seahorse analysis.
Cells were harvest from the 96-well plates and centrifuged (2000 rpm, 2 min at 4° C.) before washing with 150 μL of PBS.
(§8) The cells were then resuspended in 60 μL of LiveDead dye solution (1:500 dilution in PBS) and incubated for 15 min on ice. Cells were then centrifuged (2000 rpm, 2 min at 4° C.) before washing with 150 μL of PBS and then 200 μL of FACS buffer (PBS+2% FBS).
Subsequently, the cells were resuspended in 60 μL of stain solution (FACS buffer+antibodies specific for CD45.1, CD62L and CD8), and incubated for 15 min on ice.
(§9) Cells were then centrifuged (2000 rpm, 2 min at 4° C.) before washing with 150 μL of FACS buffer, and then resuspended in 150 μL of FACS buffer before analysis by FACS (BD™ LSR II).
After acquisition, FACS data were analysed using the FlowJo treestar software and median fluorescence for CD62L was extracted.
(§10) To study the enhancement of T cell immune fitness the in vitro studies focused on the development of T cells with long term and resting phenotypes, which could be equated to the development of memory cell characteristics. The metabolic intervention outcomes were evaluated using: • Cell phenotype: assessment by FACS of the cell surface expression of the specific marker CD62L, which is higher on resting T-cells. • Cell function: assessment using metabolic potential measurement (as per the Spare Respiratory Capacity) by means of an assay assessing cell respiration upon mitochondrial stress (Seahorse technology), which is higher in memory, quiescent cells.

OTI-1 CD8+ T-cells [2] = assay: Seahorse mitochondrial stress analysis, spare respiratory capacity (metabolic potential); type: cell-based, mouse; conditions: day 7, negative control = effector T cells expanded with IL-2/7, concentrations as in the 1st table/the 2nd table
Method: as §1, §2, §3, §4, §5, §6, §7
Cells were harvested from 12-well or 6-well plates.
A probe plate containing cartridge pores (Seahorse XFe96 FluxPak) was prepared by adding 200 μL of Seahorse XF Calibrant solution (Agilent) to each well and incubating overnight at 37° C. (no CO2).
Residues were removed by transferring the cells to a 15 mL tube and a Pasteur pipette was added. 2 mL of Lympholyte M was slowly added to the Pasteur pipette, and the Ficoll was allowed to slowly release below the cells before the pipette was removed from the tube. The tube was the centrifuged at 1500 rpm, 10 min at room temperature without braking.
5 mL of fresh uncompleted RPMI was added to the cells, and the mixture was centrifuged at 1500 rpm, 5 min at room temperature. The cells were then resuspended in 1 mL of RPMI completed media (+10% FBS, Sodium Pyruvate).
Subsequently, the cells were counted before being resuspended at 5×10^6 cells/mL in completed XF Medium (non-buffered RPMI, with glucose (25 mM), L-glutamine (2 mM) and sodium pyruvate (1 mM), pH 7.3).
40 μL of cells were then distributed in corresponding pre-determined Poly-D-Lysine coated wells of a cell culture plate (V3-PS TC-Treated) and the plate was centrifuged at 400 g, 5 min.
140 μL of XF Medium was carefully added to each well, and the plate was incubated at 37° C., 30-60 min (no CO2). During this time modulator solutions (Oligomycin 10 μM; FCCP 15 μM; Rotenone/Antimycin A 1 μM/1 μg/mL) were loaded into the previously prepared cartridge pores: 20 μL of Oligomycin in pore A; 22 μL of FCCP in pore B; and 24 μL of Rotenone/Antimycin A in pore C) and the cartridge was incubated at 37° C. (no CO2).
Mitochondrial stress analysis was then carried out using the Wave software following the manufacturer instructions.
After data acquisition, oxygen consumption rates were extracted and spare respiratory capacity calculated following the manufacturer's instructions.
as §10

OTI-1 T cells = assay: Adoptive transfer of pre-treated OTI-1 T cells into Listeria monocytogenes (Lm-OVA) infected mice, FACS of blood and spleen after 35 days; type: in vivo, C57BL/6 mice; conditions: for cell frequency: percentage of transferred cells (CD45.1) from total CD8 positive T cells, compared with control / percentage of memory cells (CD27 and CD43 positive) from CD8 positive transferred cells / percentage of MPECs (CD127 positive, KLRG1 negative) from CD8 positive transferred cells: 35 days of infection; for frequency levels of transferred cells compared with positive control (Phenformin treatment): Phenformin 100 μM pre-treatment
Method: The metabolic intervention consisted of cell medium supplementation as described above for the in vitro procedure) using the following agent concentrations, before adoptive transfer of the cells into infected mice.
For the in vivo assessment, the positive control was obtained by pre-treating the OTI-1 CD8 T-cells in vitro with Phenformin (100 μM) following the same procedure as for the other agents). Phenformin is known to induce a metabolic switch in cells essential for the development of long-term T-cells.
C57BL/6 mice were injected intravenously with 2000 CFU of Listeria monocytogenes bacteria expressing OVA at a concentration of 1×10^4 CFU/mL (Lm-OVA; harvested in Brain Heart Infusion media without antibiotics until OD reached 0.3) in 200 μL of PBS to induce a Listeria monocytogenes infection.
Treated OTI-1 T-cells (specific for OVA recognition) were provided from day 7 of the procedure described above in Example 1 at a concentration of 1×10^5 cells/mL in PBS. Residues were cleaned from the T cells using Lympholyte M as described above.
Adoptive transfer of OTI-1 T cells was carried out by intravenously injecting each mouse with 1×10^4 cells in 200 μL of PBS.
After 35 days, the mice were sacrificed to collect blood and spleens for further surface and intracellular FACs analysis.
Harvested blood or total spleen cells were subjected to red blood cell lysis in a 96-well plate and then centrifuged (2000 rpm, 2 min at 4° C.) before washing with 150 μL of PBS.
as §8
Subsequently, the cells were resuspended in 60 μL of stain solution (FACS buffer+antibodies specific for CD45.1, CD62L, CD8, CD127, KLRG1, CD27, CD43 and CXCR3), and incubated for 15 min on ice.
as §9
After acquisition, FACS data were analysed using the FlowJo treestar software and percentages of gated cells for targeted markers were extracted. […]
The cells were the centrifuged (2000 rpm, 2 min at 4° C.) and washed with 150 μL of 1× Permeabilization buffer (Intracellular staining kit (BD™)), and then centrifuged (2000 rpm, 2 min at 4° C.) and washed with 200 μL of FACS buffer. 200 μL of FACS buffer was then added and the mixture stored at 4° C. till analysis by FACS (BD™ LSR II) either the same or following day.
After acquisition, data were analysed using the FlowJo treestar software and percentages of gated cells for the targeted markers were extracted.
To study the enhancement of T cell immune fitness the in vivo studies focused on the development of T cells with long term and resting phenotypes after treatment and adoptive transfer into mice simultaneously infected with Listeria monocytogenes. The metabolic intervention outcomes were evaluated after 35 days of infection using: • Cell frequency: assessment by FACS of the percentage of transferred cells (CD45.1) from total CD8 positive T cells in the mice blood and spleen. • Cell phenotype: assessment by FACS of the percentage of cells from the blood and spleen that developed memory patterns from total CD8 positive transferred cells (CD45.1): either memory precursor effector cells (MPECs; both positive for CD127 and negative for KLRG1 markers) or full memory cells (positive for both CD27 and CD43 markers). • Cell function: assessment by FACS of the percentage of transferred cells (CD45.1) from total CD8 positive T cells in the mice spleen expressing the functional surface marker CXCR3 and able to produce both IFNγ and TNFα cytokines by intracellular staining.

Molecule | CD62L surface expression level compared with negative control (OTI-1 CD8+ T-cells [1]) | metabolic potential (spare respiratory capacity) compared with negative control (OTI-1 CD8+ T-cells [2]) | cell frequency: percentage of transferred cells (CD45.1) from total CD8 positive T cells, compared with control (OTI-1 T cells; blood) | cell frequency: percentage of transferred cells (CD45.1) from total CD8 positive T cells, compared with control (OTI-1 T cells; spleen) | percentage of memory cells (CD27 and CD43 positive) from CD8 positive transferred cells (OTI-1 T cells; spleen) | percentage of MPECs (CD127 positive, KLRG1 negative) from CD8 positive transferred cells (OTI-1 T cells; blood) | percentage of memory cells (CD27 and CD43 positive) from CD8 positive transferred cells (OTI-1 T cells; blood) | frequency levels of transferred cells compared with positive control (Phenformin treatment) (OTI-1 T cells; blood) | percentage of MPECs (CD127 positive, KLRG1 negative) from CD8 positive transferred cells (OTI-1 T cells; spleen) | frequency levels of transferred cells compared with positive control (Phenformin treatment) (OTI-1 T cells; spleen)
N=C(N)NCCC[C@H](N)C(=O)O [Arg, Arginine] | higher | higher | higher | higher | higher | – | – | – | – | –
NCC(=O)O [Gly, Glycine] | higher | higher | – | – | – | – | – | – | – | –
O=c1oc2cc(O)ccc2c2ccc(O)cc12 [UroA, urolithin A (3,8-dihydroxyurolithin)] | higher | higher | – | – | – | – | – | – | – | –
NC(=O)C[C@H](N)C(=O)O [Asn, Asparagine] | higher | higher | – | – | – | – | – | – | – | –
NC(=O)c1ccc[n+]([C@@H]2O[C@H](CO)[C@@H](O)[C@H]2O)c1 [NR, Nicotinamide riboside] | higher | higher | higher | higher | higher | higher | higher | higher | higher | similar
[Cl][Mn][Cl] [Mn, MnCl2] | higher | higher | – | – | – | – | – | – | – | –
Vitamin B12 | higher | higher | higher | higher | higher | – | higher | higher | higher | higher
N[C@@H](CO)C(=O)O [Ser, Serine] | higher | higher | – | – | – | – | – | – | – | –

— US20220168271A1, “COMPOSITIONS AND METHODS FOR INCREASING T CELL FUNCTION” (SOCIETE DES PRODUITS NESTLE S.A., priority 2019, published 2022)
